Two compounds from PMC6663621 (Cancer, 2019) can be followed below.

A short description of one data set: clinical. To be noted: human, plasma.
[1] abbreviates: plasma, Cohort 1, CC-486 dose 200 mg oral, Cycle 1 Day 1, actual values (n=2).
The mark [2] stands for this setting: plasma, Cohorts 2 and 3, CC-486 dose 300 mg oral, Cycle 1 Day 1, mean ± SD.

Values joined by “and” are separate entries in the source; they are usually repeats but may differ in a detail not shown here. Equal entries are not always repeated. Where two headings read alike, the source gives them in different places.

The Tmax is the time at which the peak concentration occurs. As a reminder, the Cmax is the peak of the concentration-time curve. In general, clearance refers to the rate of elimination divided by the concentration. Lower therefore signals a low capacity for elimination.

Take `Nc1ncn([C@@H]2O[C@H](CO)[C@@H](O)[C@H]2O)c(=O)n1` [5-azacitidine]: the “difference in dose-normalized exposure, apparent clearance, apparent volume of distribution or half-life” value (200 or 300 mg CC-486) is recorded as “no difference”. For the same compound, under setting [1], the AUCINF was found to be 538 ng·h/mL; the Cl/F is 372 L/h and 373 L/h; the V/F is 293 L and 319 L; the t1/2 came out at 0.59 h. For the same compound, under setting [2], the Cl/F was 922 ± 892 (10) L/h and the V/F is 731 ± 557 (10) L. In addition, the Tmax in the data set “clinical” (oral) is about 1 h. Moreover, in the data set “clinical” (po, 200 mg), the Cmax worked out at 324 ± 157 ng/mL and the Tmax stood at 1 h. Besides, in the data set “clinical” (po, 300 mg), the Cmax is 226 ± 130 ng/mL and the Tmax worked out at 1.08 h.
Consider `C/C=C1\NC(=O)[C@H]2CSSCC/C=C/[C@H](CC(=O)N[C@H](C(C)C)C(=O)N2)OC(=O)[C@H](C(C)C)NC1=O` [romidepsin], for which, in the data set “clinical” (iv, 8 mg/m2), the Cmax worked out at 455 ± 255 ng/mL, the Tmax was determined as 4 h and the clearance was 178 mL/min.
